The source of these data is paper PMC3942692, “Mitochondrial FAD-linked Glycerol-3-phosphate Dehydrogenase: A Target for Cancer Therapeutics” (Pharmaceuticals, 2014).

The target in this assay is T1, GPD2 (mitochondrial glycerol-3-phosphate dehydrogenase) (Homo sapiens, UniProt P43304).
T1 construct: aa 43-727 (mitochondrial transit peptide removed), N-terminal Strep-tag II, expressed in E. coli GJ1158, Strep-Tactin purified; cDNA from PC-3 cells; EC 1.1.5.3
T1 sequence (P43304 43-727): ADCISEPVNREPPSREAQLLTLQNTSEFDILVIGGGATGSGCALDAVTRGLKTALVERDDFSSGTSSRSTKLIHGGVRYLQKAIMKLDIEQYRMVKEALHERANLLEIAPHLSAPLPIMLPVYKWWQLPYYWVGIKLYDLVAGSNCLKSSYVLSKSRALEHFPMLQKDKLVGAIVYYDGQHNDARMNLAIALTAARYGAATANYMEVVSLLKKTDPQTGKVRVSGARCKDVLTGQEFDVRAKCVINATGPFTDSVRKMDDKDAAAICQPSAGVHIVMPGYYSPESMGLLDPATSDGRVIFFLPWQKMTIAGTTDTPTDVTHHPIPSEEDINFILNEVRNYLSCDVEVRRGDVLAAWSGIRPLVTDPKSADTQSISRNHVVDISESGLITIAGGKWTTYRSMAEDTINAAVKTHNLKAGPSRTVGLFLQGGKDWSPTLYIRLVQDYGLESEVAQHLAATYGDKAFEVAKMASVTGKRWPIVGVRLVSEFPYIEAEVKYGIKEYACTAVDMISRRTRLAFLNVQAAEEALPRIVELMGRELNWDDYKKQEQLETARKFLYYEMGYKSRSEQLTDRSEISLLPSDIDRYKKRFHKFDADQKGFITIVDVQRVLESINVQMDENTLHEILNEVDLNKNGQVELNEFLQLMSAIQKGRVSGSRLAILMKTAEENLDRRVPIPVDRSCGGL
Nature of the assay: GPD2 oxidoreductase, resazurin reduction fluorescence. Format: biochemical. The following applies: 30 mM glycerol-3-phosphate. An excerpt: GPD2 oxidoreductase, resazurin reduction fluorescence on GPD2 (mitochondrial glycerol-3-phosphate dehydrogenase) | six GPD2 activity inhibitors selected for follow-up analysis are shown
For orientation: Resazurin is reduced to fluorescent resorufin, in cell work by metabolically active cells.

What is called EC50 is the concentration needed to bring the measured effect to its halfway point. Lower therefore signals a more potent agent.

RH02211 displayed an EC50 of 28 ± 13.9 µM.
In turn, `CCOC(=O)c1ccc(-n2sccc2=O)cc1` [KM04416] displayed an EC50 of 1.23 ± 0.54 µM.
